Source: patent US4931457A, “Naphthylamino-and naphthyloxy-pyridinamine comounds useful as topical antiinflammatory agents for the treatment of skin disorders” (Hoechst-Roussel Pharmaceuticals Inc., priority 1989, dated 1990)
Where a name gives a salt, the structure may show the parent alone. Read-outs that look alike come from different tables or passages of the source.

Key:
[1] = tested on: ear edema induced by topical application of TPA (phorbol 12-myristate acetate); experiment: TPA-Induced Ear Edema (TPAEE); type: in vivo, Female Swiss Webster mice; conditions: for TPAEE, ear edema: 10 μg (10 μg/ear), TPA 10 μg/ear, five hours
Procedure: The purpose of this assay was to determine the ability of a topically-applied compound to prevent ear edema induced by topical application of TPA (phorbol 12-myristate acetate). Female Swiss Webster mice topically received TPA (10 μg/ear) on the right ear and vehicle on the left ear. The test compound (10 μg/ear) was applied to both ears. After five hours, the animals were sacrificed and an ear punch (4 mm) was taken from each ear. The difference in right and left ear punch weights for each animal was determined to assess activity. […] See Young, J. M. et al., J. Invest. Dermatol., 80 (1983), pp. 48-52.

porcine pancreatic PLA2 = porcine pancreatic PLA2 (Sus scrofa, UniProt P00592); experiment: biochemical
Sequence of porcine pancreatic PLA2 (P00592 23-146): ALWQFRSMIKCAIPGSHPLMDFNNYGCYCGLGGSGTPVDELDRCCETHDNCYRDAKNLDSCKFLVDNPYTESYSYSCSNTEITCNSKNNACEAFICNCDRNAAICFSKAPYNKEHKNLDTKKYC
Procedure: The ability of a compound to modulate PLA2 activity (cleavage of ^14 C-dipalmitoyl phosphotidylcholine at the 2-position to ^14 C-palmitic acid) was quantitated in this assay. The reaction mixture contained Tris buffer (25 mM), pH 8.0, calcium chloride (2.0 mM), bovine serum albumin (0.5 mg), dipalmitoyl phosphotidylcholine (8×10^-5M), (^14 C-palmitoyl)dipalmitoyl phosphotidylcholine (6×10^3cpm), porcine pancreatic PLA2 (3.2 units) and the test compound. The reaction was run at 37° C. in a shaking incubator. The reaction was quenched and an internal standard was added in order to determine sample recovery. The samples were loaded onto C18 columns, eluted with ethanol, and the radioactivity was then measured. […] See Feyen, J. H. M., et al., Journal of Chromatography 259 (1983), pp. 338-340.

[2] = tested on: naja naja (snake venom) phospholipase A2 -induced paw edema; experiment: Phospholipase A2-induced Paw Edema (PIPE); type: in vivo, male Wistar rats; conditions: 0.1 M; injected with PLA2 (3 units/paw) in subplantar region of rat left hindpaw; two hours
Procedure: The ability of compounds to prevent naja naja (snake venom) phospholipase A2 -induced paw edema in male Wistar rats (100-125 g) was measured. PLA2 (3 units/paw) alone or with 0.1M of the test compound was injected in the subplantar region of the rat left hindpaw. Immediately subsequent to the injection and at two hours post administration the paw was immersed in a mercury bath, and paw displacement was measured on a recorder via a transducer. […] See Giessler, A. J. et al., Agents and Actions, Vol. 10, Trends in Inflammation Research (1981), p. 195.

[3] = tested on: mouse ear edema induced by topical application of arachidonic acid; experiment: Arachidonic Acid-Induced Ear Edema (AAEE); type: in vivo, Female Swiss Webster mice; conditions: for AAEE, ear edema: 1 mg (1.0 mg/ear), arachidonic acid 4 mg/ear
Procedure: The purpose of this assay was to determine the ability of a topically-applied compound to prevent mouse ear edema induced by topical application of arachidonic acid. Female Swiss Webster mice topically received vehicle or test compound (1.0 mg/ear) on both ears (10 μl on outer and inner ears). After 30 minutes, the right ear of all groups received arachidonic acid (4 mg/ear) and the left ear received vehicle alone. After an additional 1 hour, the mice were sacrificed and an ear punch (4 mm) was taken from each ear. The difference in right and left ear punch weights for each animal was determined to assess activity. […] See Young, J. M. et al., Invest. Dermatol., 80, (1983), pp 48-52.

[4] = tested on: cultured human epidermal keratinocytes; experiment: Cultured Human Keratinocyte DNA Synthesis (in vitro DNA); type: cell-based; conditions: Standard, 24 hours incubation, 3H-thymidine incorporation
Procedure: The effect of a compound on the proliferation of cultured human epidermal keratinocytes was measured. After incubation with a test compound for 24 hours, the cultures were pulse-labelled for three hours with 5 μCi of ^3 H-thymidine. The cultures were extracted for DNA successively with trichloroacetic acid and ethanol, and thereafter dissolved with NaOH. The radioactive incorporation of ^3 H-thymidine into DNA was determined.

[5] = tested on: epidermal DNA synthesis (proliferation of skin); experiment: Epidermal DNA Synthesis (in vivo DNA); set-up: species or system HRS/J hairless mice; conditions: Standard; topical, 24 hours, 3H-thymidine incorporation
Procedure: The influence of compounds on the proliferation of skin was assessed by determining inhibition or stimulation of DNA synthesis. HRS/J hairless mice received topical application of a compound or vehicle alone on the dorsal aspect. After 24 hours, ^3 H-thymidine (25 μCi) was administered by intraperitoneal injection. After an additional hour, animals were sacrificed and the dorsal skin was removed. The epidermal layer was peeled from the dermis by heat separation. Unincorporated ^3 H-thymidine was removed by washing successively with trichloroacetic acid and ethanol. Samples were centrifuged at 2,000 rpm and supernatants discarded. The epidermal sheets were then extracted with warm trichloroacetic acid and the supernatants analyzed for ^3 H-thymidine incorporation by total DNA by a standard colorimetric assay. […] See Lowe, N. J., et at., Arch. Dermatol., 117 (1981), pp. 394-8; and Burton, K., Biochem. J. 62 (1956), pp. 315-22.

[6] = 0.01 M, in vitro, pH 8.0, 37° C., read-out: PLA2, difference vs. control
[7] = pH 8, read-out: PLA2, difference vs. control

O=[N+]([O-])c1cc[n+]([O-])cc1Oc1ccc(Cl)c2ccccc12 [3-(4-Chloro-1-naphthyloxy)-4-nitropyridine-N-oxide]
TPAEE, ear edema [1]: -41%

O=[N+]([O-])c1cnccc1Oc1cccc2ccccc12 [4-(1-Naphthyloxy)-3-nitropyridine]
TPAEE, ear edema [1]: -72%

CCN(CC)CCCC(C)Nc1c2ccc(Cl)cc2nc2ccc(OC)cc12 (stereo not shown) [quinacrine, reference compound]
IC50 (porcine pancreatic PLA2): 350 µM

C[C@]12CCC(=O)C=C1CC[C@@H]1[C@@H]2[C@@H](O)C[C@@]2(C)[C@H]1CC[C@]2(O)C(=O)CO [hydrocortisone, reference compound]
ED50 ([1]; Standard, TPA ear edema, mouse): 47 μg/ear

O=[N+]([O-])c1cc[n+]([O-])cc1Oc1cccc2c1CCCC2 [4-Nitro-3-(5,6,7,8-tetrahydro-1-naphthyloxy)pyridine-N-oxide]
inhibition at 10000 µM (porcine pancreatic PLA2; [6]): 38%

Nc1ccncc1Oc1ccc(Cl)c2ccccc12 [3-(4-Chloro-1-naphthyloxy)-4-pyridinamine oxalate]
inhibition at 10000 µM (porcine pancreatic PLA2; [7]): 110%

Nc1ccncc1Oc1cccc2ccccc12 [3-(1-Naphthyloxy)-4-pyridinamine]
PIPE, difference in edema vs. control [2]: -60% | inhibition at 10000 µM (porcine pancreatic PLA2; [6]): 54% | AAEE, ear edema [3]: -66%

O=[N+]([O-])c1cc[n+]([O-])cc1Nc1cccc2ccccc12 [N-(1-Naphthyl)-4-nitro-3-pyridinamine-N-oxide]
TPAEE, ear edema [1]: -40%

COc1ccc(Oc2cnccc2N)c2ccccc12 [3-(4-Methoxy-1-naphthyloxy)-4-pyridinamine]
PIPE, difference in edema vs. control [2]: -40%

Cl.Nc1cnccc1Oc1cccc2ccccc12 [4-(1-Naphthyloxy)-3-pyridinamine hydrochloride]
TPAEE, ear edema [1]: -40%

COc1ccc2c(c1)c(CC(=O)O)c(C)n2C(=O)c1ccc(Cl)cc1 [indomethacin]
IC50 [4]: 38 µM | ED50 [5]: 1.75 mg/animal | ED50 ([3]; Standard, arachidonic acid ear edema, mouse): 1.5 mg/ear

O=[N+]([O-])c1cc[n+]([O-])cc1Oc1cccc2ccccc12 [3-(1-Naphthyloxy)-4-nitropyridine-N-oxide]
AAEE, ear edema [3]: -27%

Nc1ccncc1Oc1ccc2ccccc2c1 [3-(2-Naphthyloxy)-4-pyridinamine]
AAEE, ear edema [3]: -59%

Nc1ccncc1Oc1cccc2c1CCCC2 [3-(5,6,7,8-Tetrahydro-1-naphthyloxy)-4-pyridinamine hydrochloride]
inhibition at 10000 µM (porcine pancreatic PLA2; [7]): 110%

O=[N+]([O-])c1cc[n+]([O-])cc1Oc1ccc2cc(Br)ccc2c1 [3-(6-Bromo-2-naphthyloxy)-4-nitropyridine-N-oxide]
TPAEE, ear edema [1]: -43%
